Molecules are shown by their SMILES. Where two headings read alike, the source gives them in different places.

The subject of assay [1] is normal donor peripheral blood mononuclear cells. Put plainly: Immunoglobulin M and G production. The following applies: Homo sapiens, PBMC. Type of assay: cell-based. The procedure: Immunoglobulin M and G (“IgG and IgM”) production was measured from normal donor peripheral blood mononuclear cells by culturing in the presence of the B cell differentiation factors recombinant human IL-2 (20U/mL), IL-10 (50 ng/mL), IL-15 (10 ng/mL), His-tagged CD40 Ligand (50 ng/mL), polyHistidine mouse IgG1 antibody (5 μg/mL), and ODN 2006-Human TLR9 ligand (10 μg/mL) for 4 days, followed by IL-2, IL-10, IL-15, and IL-6 (50 ng/mL) for an additional 3 days. IgM and IgG were measured by ELISA.

The test system of another assay is WSU-DLCL2 cell line. The assay can be described thus: Cell cycle analysis. Type of assay: cell-based. The procedure:
(§1) Cell Cycle Analysis: Cells were treated with DMSO or an amount of a compound provided herein for 48 hours. Propidium iodide staining for cell cycle was performed using CycleTEST PLUS (Becton Dickinson) according to manufacturer's protocol. Following staining, cells were analyzed by a FACSCalibur flow cytometer using ModFit LT software (Becton Dickinson).

In assay [2] the test system is DoHH2 cell line. The assay can be described thus: Cell cycle analysis. Type of assay: cell-based. The procedure: as §1
Another assay relates to Farage DLBCL cells. The assay can be described thus: 3 day 3H-thymidine incorporation assay. Type of assay: cell-based. A general note: Dividing cells build labelled thymidine or BrdU into new DNA.
In assay [3] the test system is Revlimid-resistant NCI-H929 R1-10. Put plainly: Proliferation and viability by 7-AAD staining. The following applies: Homo sapiens, NCI-H929, 120 h; R1-10; 5 days; read-out: IC50, proliferation. Type of assay: cell-based.
Assay [4] deals with T1, endogeneous human CRBN (U266 extract) (Homo sapiens, UniProt Q96SW2).
T1 construct: endogenous in cells; host or cells: U266 human multiple myeloma cells (NP-40 lysate)
Put plainly: Thalidomide affinity bead competition assay. Type of assay: binding. The procedure:
Affinity beads coupled to a thalidomide acid analog were incubated with the U266 extracts and, after extensive washing of the beads, the bound proteins were eluted. CRBN binding to the thalidomide-coupled affinity beads was determined by quantitative CRBN immunoblot determination.

Assay [5] has as its system NCI-H929 cells (Control, Revlimid-sensitive, parental). Put plainly: Proliferation and viability by 7-AAD staining. It is filed as cell-based. The following applies: Homo sapiens, NCI-H929, 120 h; Control / parental H929; 5 days; read-out: IC50, proliferation.
Assay [6] deals with purified primary human T cells stimulated using immobilized anti-CD3 antibody. Put plainly: T-cell costimulation, IL-2 production. It is filed as cell-based. The procedure: CRBN ubiquitination was measured in HEK293T cells, which were transfected with an amino-terminal His-biotin-tagged CRBN construct, then preincubated with compounds for one hour followed by treatment with the MG132 proteasome inhibitor (to arrest degradation of ubiquitinated proteins). Cells were lysed and processed to measure CRBN ubiquitination by SDS-PAGE and immunoblot analysis using an anti-ubiquitin antibody. Cell proliferation studies were conducted in lenalidomide-sensitive and refractory multiple myeloma cells. […] T-cell costimulation was measured in purified primary human T cells stimulated using immobilized anti-CD3 antibody in cell culture for 2 days, and cytokine secretion was measured by ELISA.

For a further assay, the system named is OCI-Ly19. Put plainly: 5 day 3H thymidine incorporation. It is filed as cell-based. The following applies: Homo sapiens, GCB subtype. The protocol: (§2) Cells were treated with the tested compound for 5 days at 37° C.; proliferation of cells was determined using ^3H-thymidine incorporation method.
In a further assay the test system is Karpas-1106P. Put plainly: 5 day 3H thymidine incorporation. Type of assay: cell-based. The following applies: Homo sapiens, PMBL. The protocol:
as §2

In a further assay the test system is OCI-Ly10. The assay can be described thus: 5 day 3H thymidine incorporation. It is filed as cell-based. The conditions noted are these: Homo sapiens, ABC subtype. The protocol:
as §2

The next assay deals with SUDHL4. Put plainly: 5 day 3H thymidine incorporation. It is filed as cell-based. The following applies: Homo sapiens, SU-DHL-4; GCB subtype. The protocol: as §2
A further assay deals with OCI-Ly3. Put plainly: 5 day 3H thymidine incorporation. It is filed as cell-based. The conditions noted are these: Homo sapiens, ABC subtype. The protocol: as §2
The subject of a further assay is RIVA. The assay can be described thus: 5 day 3H thymidine incorporation. It is filed as cell-based. The following applies: ABC subtype. The protocol:
as §2

A further assay relates to U2932. The assay can be described thus: 5 day 3H thymidine incorporation. Type of assay: cell-based. The conditions noted are these: Homo sapiens, ABC subtype. The protocol:
as §2

The next assay has as its system TMD8. Put plainly: 5 day 3H thymidine incorporation. Type of assay: cell-based. The conditions noted are these: Homo sapiens, ABC subtype. The protocol: as §2
The subject of another assay is WSU-DLCL2. The assay can be described thus: 5 day 3H thymidine incorporation. It is filed as cell-based. The conditions noted are these: Homo sapiens, WSUDLCL2; GCB subtype. The protocol:
as §2

Assay [7] deals with DoHH2 cell line. The assay can be described thus: Apoptosis analysis (annexin-V). It is filed as cell-based. The protocol: Apoptosis Analysis: Cells were treated with DMSO or an amount of a compound provided herein at various time points, then washed with annexin-V wash buffer (BD Biosciences). Cells were incubated with annexin-V binding protein and propidium iodide (BD Biosciences) for 10 minutes. Samples were analyzed using flow cytometry.

Assay [8] relates to WSU-DLCL2 DLBCL xenograft. Put plainly: WSU-DLCL2 DLBCL xenograft model.
For the next assay, the system named is NFκB p65 and p50. The assay can be described thus: NFκB activity in DLBCL cells (Active Motif transcription factor assay). Type of assay: cell-based. The conditions noted are these: 1 μM and 10 μM; 2 days; ABC-DLBCL lines such as TMD8 and OCI-Ly10. The procedure:
DLBCL cells were treated with test compound or an IKK1/2 dual inhibitor (used as a positive inhibitor control) for 2 days. NFκB activity was examined with Active Motif transcription factor assay using nuclear extracts from cells following treatment.

What is called EC50 is the concentration needed to bring the measured effect to its halfway point. A low value points to an effect from little substance. `O=C1CC[C@H](N2Cc3c(OCc4ccc(CN5CCOCC5)cc4)cccc3C2=O)C(=O)N1` [Compound I-S, (S)-3-(4-((4-(morpholinomethyl)benzyl)oxy)-1-oxoisoindolin-2-yl)piperidine-2,6-dione]: the IC50 in [1] (read-out: IgG production IC50) was 0.0021 µM; in [1] (read-out: IgM production IC50) it was 0.00035 µM; with Farage DLBCL cells (Farage, 72 h, 3 day, read-out: anti-proliferative IC50), 0.28 µM; in [3], 1.32 µM; in assay [5], 0.01 µM; with OCI-Ly19, more than 10 µM. For the same compound, the IC50 with Karpas-1106P is 0.28 µM; in the assay on OCI-Ly10, 0.0009 µM; in the assay with SUDHL4 it was 1.6 µM; with OCI-Ly3, more than 10 µM; in the assay on RIVA, 2.3 µM; in the assay with U2932, 0.005 µM. Also, the IC50 in the assay on TMD8 came to 0.059 µM; in the assay on WSU-DLCL2 it was 0.24 µM. Also, the cell cycle effect result in the assay with WSU-DLCL2 cell line and in the assay on DoHH2 cell line [2] was “induced G1 arrest” throughout. Further, the “combination effect, fractional product method” value in the assay on Farage DLBCL cells (combined with Rituxan) is “additive to synergistic manner”. Also, the “binding to CRBN” value in assay [4] is listed as “binds to endogeneous human CRBN”. The EC50 in assay [6] was approximately 0.00029 µM.
On to `O=C1CCC(N2Cc3c(OCc4ccc(CN5CCOCC5)cc4)cccc3C2=O)C(=O)N1` (racemic) [Compound I, 3-(4-((4-(morpholinomethyl)benzyl)oxy)-1-oxoisoindolin-2-yl)piperidine-2,6-dione], for which, in the assay with DoHH2 cell line [7] (combined with Rituxan), the “apoptosis induction and live cell number reduction in combination” value is given as “additive manner”. Also, the “apoptosis and cell numbers” value with DoHH2 cell line [7] (single agent) is reported as “induced apoptosis”. Further, the “Tumor Free Survival on Day 44” value in [8] (3 mg/kg in combination with Rituxan 2 mg/kg iv qw) and in [8] (30 mg/kg in combination with Rituxan 2 mg/kg iv qw) was 6/10 in each case. Moreover, in assay [8] (all combination treatment groups, complete regression = tumor volume <25 mm^3), the “tumor response in combination with Rituxan” value is listed as “complete regression”. The “NFκB p65 and p50 activity” value in the assay on NFκB p65 and p50 is “significantly inhibits”.

For the origin of these results see patent US20260007679A1, “METHODS OF TREATING CANCER USING 3-(4-((4-(MORPHOLINOMETHYL)BENZYL)OXY)-1-OXOISOINDOLIN-2-YL)PIPERIDINE-2,6-DIONE” (Celgene Corporation, priority 2012, published 2026).
